Measurements: patent US11173137B2, “Compositions and methods to modulate chloride ion channel activity” (The Board of Trustees of the Leland Stanford Junior …, priority 2018, dated 2021)
Values joined by “and” are separate entries in the source; they are usually repeats but may differ in a detail not shown here. Equal values may be shown once. Read-outs that look alike come from different tables or passages of the source.

Legend:
[1] = molecular target: mGluR1 (Homo sapiens (Human), UniProt Q13255); test: PDSP functional assay; assay type: biochemical; settings: only a functional assay was performed
Protocol: (§1) Two exemplary compounds, FA44 and FA26, were screened against a panel of CNS receptors, transporters, and ion channels to examine specificity for CLC-2 in the brain. A comprehensive primary binding assay screen was performed through the NIH Psychoactive Drug Screening Program (PDSP) at UNC-Chapel Hill. Secondary or functional assays were performed for compounds showing >50% activity in the primary assay.

[2] = molecular target: CLC-1 (Homo sapiens (Human), UniProt P35523); test: IonWorks Barracuda automated patch-clamp electrophysiology, CLC-1; assay type: cell-based; settings: for IC50: Table 2; for percent inhibition of CLC-1 at highest concentration tested (in parenthesis): at the concentration listed in the same cell
Protocol: If the IC50 was greater than the highest concentration tested, this concentration is listed along with the percent inhibition at this concentration (in parenthesis).
FIG. 8, panels A and B depict graphically the Selectivity between CLC-1 and CLC-2. […] Data points represent the mean current block at 16 different FA44 concentrations (n=4-8), using the IonWorks™ Barracuda. […] Panel B depicts a summary graph showing the mean inhibition of CLC-1 (left bar) or CLC-2 (right bar) current at 30 μM, illustrating the improvement in both selectivity and potency from the hit compound MCFA to the exemplary compound FA44.

[3] = molecular target: 5-HT2B (Homo sapiens (Human), UniProt P41595); test: PDSP primary binding assay; settings: primary binding assay at 10 μM
Protocol: as §1

[4] = molecular target: D5 (Homo sapiens (Human), UniProt P21918); test: PDSP primary binding assay; settings: primary binding assay at 10 μM
Protocol: as §1

[5] = molecular target: 5-HT1D (Homo sapiens (Human), UniProt P28221); test: PDSP primary binding assay; settings: primary binding assay at 10 μM
Protocol: as §1

[6] = molecular target: SERT (Homo sapiens (Human), UniProt P31645); test: PDSP primary binding assay; settings: primary binding assay at 10 μM
Protocol: as §1

[7] = system: NMDA; test: PDSP primary binding assay; settings: primary binding assay at 10 μM
Protocol: as §1

[8] = molecular target: MOR (Homo sapiens (Human), UniProt P35372); test: PDSP primary binding assay; settings: primary binding assay at 10 μM
Protocol: as §1

[9] = molecular target: 5-HT6 (Homo sapiens (Human), UniProt P50406); test: PDSP primary binding assay; settings: primary binding assay at 10 μM
Protocol: as §1

[10] = molecular target: Alpha1D (Homo sapiens (Human), UniProt P25100); test: PDSP primary binding assay; settings: primary binding assay at 10 μM
Protocol: as §1

[11] = molecular target: Beta3 (Homo sapiens (Human), UniProt P13945); test: PDSP primary binding assay; settings: primary binding assay at 10 μM
Protocol: as §1

[12] = molecular target: D3 (Homo sapiens (Human), UniProt P35462); test: PDSP primary binding assay; settings: primary binding assay at 10 μM
Protocol: as §1

[13] = molecular target: NOP (Homo sapiens (Human), UniProt P41146); test: PDSP primary binding assay; settings: primary binding assay at 10 μM
Protocol: as §1

[14] = molecular target: 5-HT2C (Homo sapiens (Human), UniProt P28335); test: PDSP primary binding assay; settings: primary binding assay at 10 μM
Protocol: as §1

[15] = molecular target: D4 (Homo sapiens (Human), UniProt P21917); test: PDSP primary binding assay; settings: primary binding assay at 10 μM
Protocol: as §1

[16] = molecular target: Beta2 (Homo sapiens (Human), UniProt P07550); test: PDSP primary binding assay; settings: primary binding assay at 10 μM
Protocol: as §1

[17] = molecular target: KOR (Homo sapiens (Human), UniProt P41145); test: PDSP primary binding assay; settings: primary binding assay at 10 μM
Protocol: as §1

[18] = molecular target: M2 (Homo sapiens (Human), UniProt P08172); test: PDSP primary binding assay; settings: primary binding assay at 10 μM
Protocol: as §1

[19] = molecular target: D1 (Homo sapiens (Human), UniProt P21728); test: PDSP primary binding assay; settings: primary binding assay at 10 μM
Protocol: as §1

[20] = molecular target: 5-HT2A (Homo sapiens (Human), UniProt P28223); test: PDSP primary binding assay; settings: primary binding assay at 10 μM
Protocol: as §1

[21] = molecular target: Sigma 2 (Homo sapiens (Human), UniProt Q5BJF2); test: PDSP primary binding assay; settings: primary binding assay at 10 μM
Protocol: as §1

[22] = system: Calcium channel; test: PDSP primary binding assay; settings: primary binding assay at 10 μM
Protocol: as §1

[23] = molecular target: 5-HT1B (Homo sapiens (Human), UniProt P28222); test: PDSP primary binding assay; settings: primary binding assay at 10 μM
Protocol: as §1

[24] = system: GABAA; test: PDSP primary binding assay; settings: primary binding assay at 10 μM
Protocol: as §1

[25] = molecular target: 5-HT7 (Homo sapiens (Human), UniProt P34969); test: PDSP primary binding assay; settings: primary binding assay at 10 μM
Protocol: as §1

[26] = molecular target: Alpha2B (Homo sapiens (Human), UniProt P18089); test: PDSP primary binding assay; settings: primary binding assay at 10 μM
Protocol: as §1

[27] = molecular target: H2 (Homo sapiens (Human), UniProt P25021); test: PDSP primary binding assay; settings: primary binding assay at 10 μM
Protocol: as §1

[28] = molecular target: Alpha1B (Homo sapiens (Human), UniProt P35368); test: PDSP primary binding assay; settings: primary binding assay at 10 μM
Protocol: as §1

[29] = molecular target: Oxytocin (Homo sapiens (Human), UniProt P30559); test: PDSP primary binding assay; settings: primary binding assay at 10 μM
Protocol: as §1

[30] = molecular target: H3 (Homo sapiens (Human), UniProt Q9Y5N1); test: PDSP primary binding assay; settings: primary binding assay at 10 μM
Protocol: as §1

[31] = molecular target: DOR (Homo sapiens (Human), UniProt P41143); test: PDSP primary binding assay; settings: primary binding assay at 10 μM
Protocol: as §1

[32] = system: BZP rat brain site; test: PDSP primary binding assay; settings: primary binding assay at 10 μM
Protocol: as §1

[33] = molecular target: NET (Homo sapiens (Human), UniProt P23975); test: PDSP primary binding assay; settings: primary binding assay at 10 μM
Protocol: as §1

[34] = molecular target: Alpha1A (Homo sapiens (Human), UniProt P35348); test: PDSP primary binding assay; settings: primary binding assay at 10 μM
Protocol: as §1

[35] = molecular target: PBR (Homo sapiens (Human), UniProt P30536); test: PDSP primary binding assay; settings: primary binding assay at 10 μM
Protocol: as §1

[36] = molecular target: CLC-2 (Homo sapiens (Human), UniProt P51788); test: IonWorks Barracuda automated patch-clamp electrophysiology, human CLC-2 cell line; assay type: cell-based; settings: for times greater potency towards CLC-2 compared to CLC-1: CLC-2 versus CLC-1
Excerpt: FIG. 8, panels A and B depict graphically the Selectivity between CLC-1 and CLC-2. […]

[37] = n = 4 cells, four concentrations of each compound, IonWorks Barracuda, read-out: IC50 (μM) against CLC-2

Sequence of CLC-1 (P35523 whole entry): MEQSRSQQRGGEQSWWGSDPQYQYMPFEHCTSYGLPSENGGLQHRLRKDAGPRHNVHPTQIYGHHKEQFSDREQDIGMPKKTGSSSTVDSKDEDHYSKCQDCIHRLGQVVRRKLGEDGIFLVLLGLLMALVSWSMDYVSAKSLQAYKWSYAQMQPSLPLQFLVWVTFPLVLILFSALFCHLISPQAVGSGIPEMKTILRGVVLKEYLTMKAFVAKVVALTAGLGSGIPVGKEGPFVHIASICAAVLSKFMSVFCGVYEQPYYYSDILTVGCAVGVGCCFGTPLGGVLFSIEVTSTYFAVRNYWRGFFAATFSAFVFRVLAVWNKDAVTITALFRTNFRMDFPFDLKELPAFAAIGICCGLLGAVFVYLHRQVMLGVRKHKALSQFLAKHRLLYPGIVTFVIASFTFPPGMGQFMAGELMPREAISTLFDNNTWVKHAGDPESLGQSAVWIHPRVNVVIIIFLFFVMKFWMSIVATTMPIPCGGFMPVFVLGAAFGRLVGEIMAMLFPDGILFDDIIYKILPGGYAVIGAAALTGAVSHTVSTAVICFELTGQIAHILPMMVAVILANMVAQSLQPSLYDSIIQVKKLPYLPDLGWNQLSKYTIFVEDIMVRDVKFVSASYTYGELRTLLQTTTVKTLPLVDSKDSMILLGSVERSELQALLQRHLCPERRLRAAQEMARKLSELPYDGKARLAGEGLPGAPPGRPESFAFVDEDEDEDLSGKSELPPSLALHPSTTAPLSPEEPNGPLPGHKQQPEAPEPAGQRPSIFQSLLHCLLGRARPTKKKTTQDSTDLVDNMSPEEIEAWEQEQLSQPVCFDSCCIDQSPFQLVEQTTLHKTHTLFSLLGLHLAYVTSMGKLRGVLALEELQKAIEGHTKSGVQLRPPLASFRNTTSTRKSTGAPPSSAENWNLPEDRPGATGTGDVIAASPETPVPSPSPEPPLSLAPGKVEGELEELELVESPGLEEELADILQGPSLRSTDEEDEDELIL
Sequence of CLC-2 (P51788 whole entry): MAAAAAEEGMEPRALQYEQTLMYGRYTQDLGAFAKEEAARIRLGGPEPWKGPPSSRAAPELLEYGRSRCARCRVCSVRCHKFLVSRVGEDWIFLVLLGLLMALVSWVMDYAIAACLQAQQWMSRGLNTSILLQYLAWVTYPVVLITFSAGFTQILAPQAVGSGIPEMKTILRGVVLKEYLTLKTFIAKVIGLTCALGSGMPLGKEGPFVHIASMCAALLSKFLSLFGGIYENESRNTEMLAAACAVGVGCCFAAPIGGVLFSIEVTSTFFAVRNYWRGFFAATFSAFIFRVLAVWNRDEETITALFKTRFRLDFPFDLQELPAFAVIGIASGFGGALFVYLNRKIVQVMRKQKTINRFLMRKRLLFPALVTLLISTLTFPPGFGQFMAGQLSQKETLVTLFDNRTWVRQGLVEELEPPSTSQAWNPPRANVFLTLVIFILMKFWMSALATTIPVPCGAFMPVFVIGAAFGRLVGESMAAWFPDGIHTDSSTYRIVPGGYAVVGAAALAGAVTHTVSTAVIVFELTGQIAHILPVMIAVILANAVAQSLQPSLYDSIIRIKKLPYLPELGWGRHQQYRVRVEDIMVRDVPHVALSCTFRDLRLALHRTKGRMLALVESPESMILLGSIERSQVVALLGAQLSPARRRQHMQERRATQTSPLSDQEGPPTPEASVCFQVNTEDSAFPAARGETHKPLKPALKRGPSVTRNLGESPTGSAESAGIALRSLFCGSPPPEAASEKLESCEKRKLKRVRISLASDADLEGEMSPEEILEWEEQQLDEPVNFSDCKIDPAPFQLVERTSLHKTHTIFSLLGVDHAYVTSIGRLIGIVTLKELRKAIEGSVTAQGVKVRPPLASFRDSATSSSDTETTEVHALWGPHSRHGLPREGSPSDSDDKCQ
Sequence of KOR (P41145 whole entry): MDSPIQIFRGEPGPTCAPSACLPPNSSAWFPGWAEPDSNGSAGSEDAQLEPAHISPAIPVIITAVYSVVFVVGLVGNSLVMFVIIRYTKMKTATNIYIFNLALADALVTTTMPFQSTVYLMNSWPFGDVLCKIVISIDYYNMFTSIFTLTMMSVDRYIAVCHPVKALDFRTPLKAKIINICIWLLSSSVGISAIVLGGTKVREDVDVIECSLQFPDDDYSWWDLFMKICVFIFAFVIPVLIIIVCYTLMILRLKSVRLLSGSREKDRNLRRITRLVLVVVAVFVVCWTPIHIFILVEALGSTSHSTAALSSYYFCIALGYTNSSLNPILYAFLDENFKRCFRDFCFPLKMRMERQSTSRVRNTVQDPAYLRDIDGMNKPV
Sequence of Alpha1B (P35368 whole entry): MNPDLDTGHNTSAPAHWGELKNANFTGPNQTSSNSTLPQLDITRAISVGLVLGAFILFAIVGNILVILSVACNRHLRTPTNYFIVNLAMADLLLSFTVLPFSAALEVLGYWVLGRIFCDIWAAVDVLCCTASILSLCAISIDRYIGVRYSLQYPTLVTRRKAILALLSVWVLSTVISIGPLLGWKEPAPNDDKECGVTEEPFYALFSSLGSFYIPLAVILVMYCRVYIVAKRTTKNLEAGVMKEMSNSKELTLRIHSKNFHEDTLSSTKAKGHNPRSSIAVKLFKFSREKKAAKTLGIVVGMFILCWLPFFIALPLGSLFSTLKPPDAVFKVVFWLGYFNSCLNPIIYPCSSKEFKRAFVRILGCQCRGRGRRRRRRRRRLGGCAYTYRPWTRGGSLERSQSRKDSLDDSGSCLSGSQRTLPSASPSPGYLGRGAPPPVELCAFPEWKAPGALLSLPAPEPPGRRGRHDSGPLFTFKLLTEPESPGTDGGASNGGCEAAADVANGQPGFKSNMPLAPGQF
Sequence of Sigma 2 (Q5BJF2 whole entry): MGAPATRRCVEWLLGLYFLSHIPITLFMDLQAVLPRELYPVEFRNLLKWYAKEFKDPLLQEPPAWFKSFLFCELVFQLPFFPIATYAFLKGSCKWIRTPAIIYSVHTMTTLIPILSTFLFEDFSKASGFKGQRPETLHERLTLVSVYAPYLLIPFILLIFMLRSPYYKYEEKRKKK
Sequence of NOP (P41146 whole entry): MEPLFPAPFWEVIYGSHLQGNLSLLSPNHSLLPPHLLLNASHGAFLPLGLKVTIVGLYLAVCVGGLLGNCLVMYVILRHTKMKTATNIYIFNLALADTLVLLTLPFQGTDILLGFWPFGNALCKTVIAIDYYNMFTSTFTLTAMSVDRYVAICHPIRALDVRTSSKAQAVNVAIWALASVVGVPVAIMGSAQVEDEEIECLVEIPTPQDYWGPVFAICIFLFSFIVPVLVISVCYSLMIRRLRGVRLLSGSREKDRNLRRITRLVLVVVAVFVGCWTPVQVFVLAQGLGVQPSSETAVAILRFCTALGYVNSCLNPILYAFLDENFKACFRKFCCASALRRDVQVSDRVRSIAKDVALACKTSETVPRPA
Sequence of 5-HT2C (P28335 33-458, species assumed): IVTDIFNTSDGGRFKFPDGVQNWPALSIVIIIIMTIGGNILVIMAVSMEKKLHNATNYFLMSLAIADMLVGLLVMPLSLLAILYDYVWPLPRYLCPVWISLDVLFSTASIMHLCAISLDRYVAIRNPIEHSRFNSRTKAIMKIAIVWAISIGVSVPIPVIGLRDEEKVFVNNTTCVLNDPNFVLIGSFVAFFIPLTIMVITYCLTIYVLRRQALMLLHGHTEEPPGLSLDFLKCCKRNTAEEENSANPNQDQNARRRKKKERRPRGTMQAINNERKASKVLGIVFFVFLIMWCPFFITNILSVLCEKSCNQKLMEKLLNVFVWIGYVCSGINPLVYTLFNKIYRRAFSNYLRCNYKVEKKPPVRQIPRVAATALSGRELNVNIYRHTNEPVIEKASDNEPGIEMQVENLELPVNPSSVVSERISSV
Sequence of Beta3 (P13945 whole entry): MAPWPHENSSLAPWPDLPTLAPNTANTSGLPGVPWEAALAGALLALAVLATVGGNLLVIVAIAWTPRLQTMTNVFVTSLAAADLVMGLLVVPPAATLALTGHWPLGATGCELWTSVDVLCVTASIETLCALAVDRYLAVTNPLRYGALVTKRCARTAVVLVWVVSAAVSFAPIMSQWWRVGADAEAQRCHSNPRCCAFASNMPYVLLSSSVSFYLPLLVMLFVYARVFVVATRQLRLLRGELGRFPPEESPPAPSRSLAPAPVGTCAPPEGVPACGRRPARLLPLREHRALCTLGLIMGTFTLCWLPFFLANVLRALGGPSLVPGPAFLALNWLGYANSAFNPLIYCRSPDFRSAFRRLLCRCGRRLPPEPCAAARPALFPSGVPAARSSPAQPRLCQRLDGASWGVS
Sequence of Alpha1D (P25100 whole entry): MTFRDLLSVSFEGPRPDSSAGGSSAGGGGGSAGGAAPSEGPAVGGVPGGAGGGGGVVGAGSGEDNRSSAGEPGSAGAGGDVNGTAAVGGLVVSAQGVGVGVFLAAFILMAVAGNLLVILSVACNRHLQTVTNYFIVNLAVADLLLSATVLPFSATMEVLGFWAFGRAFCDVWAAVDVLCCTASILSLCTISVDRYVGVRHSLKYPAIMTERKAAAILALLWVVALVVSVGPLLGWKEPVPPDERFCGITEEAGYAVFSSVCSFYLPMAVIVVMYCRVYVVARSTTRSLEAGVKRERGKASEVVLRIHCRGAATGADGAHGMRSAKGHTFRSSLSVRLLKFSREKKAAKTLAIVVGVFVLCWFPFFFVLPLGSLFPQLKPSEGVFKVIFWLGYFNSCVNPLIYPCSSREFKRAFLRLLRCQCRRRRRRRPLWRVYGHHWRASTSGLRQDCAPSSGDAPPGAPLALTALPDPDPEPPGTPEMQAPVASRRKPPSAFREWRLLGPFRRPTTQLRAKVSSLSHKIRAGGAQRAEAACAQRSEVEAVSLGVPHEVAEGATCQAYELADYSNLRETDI
Sequence of PBR (P30536 whole entry, species assumed): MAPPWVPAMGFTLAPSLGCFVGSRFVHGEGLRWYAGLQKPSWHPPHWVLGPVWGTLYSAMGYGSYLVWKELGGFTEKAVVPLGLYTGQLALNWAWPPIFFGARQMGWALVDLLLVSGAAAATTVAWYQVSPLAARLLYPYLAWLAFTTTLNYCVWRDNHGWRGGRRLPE

Question: What does the source list for `O=C(O)c1ccccc1Nc1c(Cl)ccc(OCc2ccccc2)c1Cl` [AK3-99B]?
Answer: Ki [1]: > 10000 nM; IC50 [2]: > 30000 nM; percent inhibition of CLC-1 at highest concentration tested (in parenthesis) [2]: 25%; % (10 μM) [3]: 14.38%; % (10 μM) [4]: 27.29%; % (10 μM) [5]: 6.77%; % (10 μM) [6]: 4.65%; % (10 μM) [7]: 39.29%; % (10 μM) [8]: 9.03%; % (10 μM) [9]: −10.67%; % (10 μM) [10]: 7.20%; % (10 μM) [11]: 32.58%; % (10 μM) [12]: 18.42%; % (10 μM) [13]: 24.65%; % (10 μM) [14]: −11.17%; % (10 μM) [15]: −0.19%; % (10 μM) [16]: −8.08%; % (10 μM) [17]: 29.90%; % (10 μM) [18]: 14.57%; % (10 μM) [19]: 27.05%; % (10 μM) [20]: 19.70%; % (10 μM) [21]: −9.10%; % (10 μM) [22]: 12.22%; % (10 μM) [23]: −0.25%; % (10 μM) [24]: −17.65%; % (10 μM) [25]: −29.75%; % (10 μM) [26]: 15.62%; % (10 μM) [27]: 25.62%; % (10 μM) [28]: 4.33%; % (10 μM) [29]: 8.80%; % (10 μM) [30]: −5.97%; % (10 μM) [31]: 16.22%; % (10 μM) [32]: 40.75%; % (10 μM) [33]: 33.59%; % (10 μM) [34]: 24.26%; % (10 μM) [35]: 2.28%; IC50 ([36]; Table 2, read-out: IC50 (CLC-2)): 1.7 ± 0.2 µM; IC50 [36, 37]: 0.62 µM; IC50 ([36]; text and FIG. 3, Table 1 series, read-out: IC50 against CLC-2): ~0.6 µM and 0.6 µM

Question: Which results are given for `O=C(O)c1cccnc1Nc1c(Cl)ccc(OCc2ccccc2)c1Cl` [AK3-238]?
Answer: Ki [1]: > 10000 nM; IC50 [2]: > 100000 nM; percent inhibition of CLC-1 at highest concentration tested (in parenthesis) [2]: 22%; % (10 μM) [3]: 45.16%; % (10 μM) [4]: 31.58%; % (10 μM) [5]: 44.06%; % (10 μM) [6]: 30.25%; % (10 μM) [7]: 24.18%; % (10 μM) [8]: −0.18%; % (10 μM) [9]: 18.68%; % (10 μM) [10]: −10.12%; % (10 μM) [11]: 24.76%; % (10 μM) [12]: −4.66%; % (10 μM) [13]: 21.14%; % (10 μM) [14]: −13.39%; % (10 μM) [15]: −0.65%; % (10 μM) [16]: 4.77%; % (10 μM) [17]: 4.11%; % (10 μM) [18]: −8.25%; % (10 μM) [19]: −9.96%; % (10 μM) [20]: 18.91%; % (10 μM) [21]: −8.14%; % (10 μM) [22]: 23.69%; % (10 μM) [23]: 49.89%; % (10 μM) [24]: −4.29%; % (10 μM) [25]: 17.51%; % (10 μM) [26]: −28.62%; % (10 μM) [27]: 5.35%; % (10 μM) [28]: 4.90%; % (10 μM) [29]: −1.41%; % (10 μM) [30]: −0.92%; % (10 μM) [31]: 16.59%; % (10 μM) [32]: 29.32%; % (10 μM) [33]: 17.36%; % (10 μM) [34]: 12.29%; % (10 μM) [35]: 8.22%; % inhibition at the concentration listed (in parenthesis) ([36]; CLC-2, at the concentration listed in the IC50 cell, negative = increase in peak current): (90%); times greater potency towards CLC-2 compared to CLC-1 [36]: approximately 10,000 times; times greater potency towards CLC-2 compared to CLC-1 ([36]; listed as FA44): 10,000 times; selectivity CLC-2 over CLC-1 ([36]; FIG. 8 panel A): selective for CLC-2 over CLC-1; IC50 ([36]; Table 2 / FIG. 8, 16 concentrations, n=4-8, −120 mV, read-out: IC50 (CLC-2)): 0.017 ± 0.002 µM; IC50 [36, 37]: < 0.12 µM
